# Data from publication PMC3478134 (Cancer cell, 2012).
# Experiments:
# [1] = test system: MM cell lines; assay: MM cell line viability; type: cell-based, human
# [2] = biological target: T1, USP7 (Homo sapiens, UniProt Q93009); assay: Ub-PLA2 isopeptidase reporter assay, USP7; type: biochemical; details: for USP7 inhibitory activity (SAR): Fig 1C/1D
# [3] = test system: HCT116 (WT) cells; assay: MTT viability, HCT116; type: cell-based, human; details: 24, 48, 72 hr
# [4] = test system: MM.1S cells; assay: Viability of scr- or HDM2-siRNA transfected MM.1S cells; type: cell-based, human; details: 24 hr
# [5] = test system: ARP-1 MM cells; assay: Viability, p53-null ARP-1 MM cells; type: cell-based, human; details: p53-null ARP-1, 48 hr
# [6] = biological target: UCHL3 (Homo sapiens, UniProt P15374); assay: DUB inhibition in cells; type: cell-based; details: Fig S1A
# UCHL3, sequence (P15374 whole entry): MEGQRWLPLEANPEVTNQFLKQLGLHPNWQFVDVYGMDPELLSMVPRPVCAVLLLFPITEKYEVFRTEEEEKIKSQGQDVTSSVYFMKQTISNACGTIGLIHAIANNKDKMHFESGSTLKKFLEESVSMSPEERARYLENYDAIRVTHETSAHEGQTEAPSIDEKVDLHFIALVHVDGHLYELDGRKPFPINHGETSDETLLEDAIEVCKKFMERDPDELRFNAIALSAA
# [7] = test system: MM.1S cells; assay: Viability of scr- or p53-siRNA transfected MM.1S cells; type: cell-based, human; details: 48 hr
# [8] = test system: p53^−/− MEFs; assay: Viability, p53^−/− MEFs; type: cell-based, mouse; details: 48 hr
# [9] = test system: HCT116 p21^−/− cells; details: 48 hr, versus HCT116 (WT)
# [10] = test system: ANBL-6.WT cells; assay: Cell viability, ANBL-6.WT; type: cell-based
# [11] = Tolerability in tumor-bearing mice; details: twice-weekly schedule
# [12] = test system: purified patient MM cells; assay: Purified patient MM cell viability; type: cell-based, human; details: 8 MM patients, 48 hr
# [13] = test system: p53^−/−/MDM2^−/− MEFs; assay: Viability, p53^−/−/MDM2^−/− MEFs; type: cell-based, mouse; details: 48 hr
# [14] = test system: INA-6 MM tumors; assay: SCID-hu model, INA-6 MM tumors, serum shIL-6R; type: in vivo, mice; details: 10 mg/kg
# [15] = biological target: T1, USP7; assay: HA-UbVME active site probe competition, HEK293T cells; type: cell-based; details: lysates from treated HEK293T cells; concentrations as low as
# [16] = test system: CCRF-CEM leukemic tumors; assay: CCRF-CEM leukemic xenograft; details: 10 mg/kg twice weekly for 3 weeks
# [17] = test system: ANBL-6.BR cells; assay: Cell viability, ANBL-6.BR; type: cell-based
# [18] = biological target: T1, USP7; assay: Cellular USP7 activity in MM.1S cells, Ub-EKL assay after immunoprecipitation; type: cell-based; details: 3 hr, concentration-dependent
# [19] = test system: ARP-1 MM tumors; assay: Human p53-null ARP-1 MM xenograft
# [20] = test system: U2OS cells; assay: IC50 in U2OS cells; type: cell-based
# [21] = test system: MM cells; assay: Apoptosis; type: cell-based, human; details: Fig S3E
# [22] = mouse, in vivo
# [23] = test system: HCT116 USP7^−/− cells; assay: MTT viability, HCT116 USP7^−/−; type: cell-based, human; details: HCT116 USP7^−/− versus WT
# [24] = biological target: USP5 (Homo sapiens, UniProt P45974); assay: DUB inhibition in cells; type: cell-based; details: Fig S1A
# USP5, sequence (P45974 whole entry): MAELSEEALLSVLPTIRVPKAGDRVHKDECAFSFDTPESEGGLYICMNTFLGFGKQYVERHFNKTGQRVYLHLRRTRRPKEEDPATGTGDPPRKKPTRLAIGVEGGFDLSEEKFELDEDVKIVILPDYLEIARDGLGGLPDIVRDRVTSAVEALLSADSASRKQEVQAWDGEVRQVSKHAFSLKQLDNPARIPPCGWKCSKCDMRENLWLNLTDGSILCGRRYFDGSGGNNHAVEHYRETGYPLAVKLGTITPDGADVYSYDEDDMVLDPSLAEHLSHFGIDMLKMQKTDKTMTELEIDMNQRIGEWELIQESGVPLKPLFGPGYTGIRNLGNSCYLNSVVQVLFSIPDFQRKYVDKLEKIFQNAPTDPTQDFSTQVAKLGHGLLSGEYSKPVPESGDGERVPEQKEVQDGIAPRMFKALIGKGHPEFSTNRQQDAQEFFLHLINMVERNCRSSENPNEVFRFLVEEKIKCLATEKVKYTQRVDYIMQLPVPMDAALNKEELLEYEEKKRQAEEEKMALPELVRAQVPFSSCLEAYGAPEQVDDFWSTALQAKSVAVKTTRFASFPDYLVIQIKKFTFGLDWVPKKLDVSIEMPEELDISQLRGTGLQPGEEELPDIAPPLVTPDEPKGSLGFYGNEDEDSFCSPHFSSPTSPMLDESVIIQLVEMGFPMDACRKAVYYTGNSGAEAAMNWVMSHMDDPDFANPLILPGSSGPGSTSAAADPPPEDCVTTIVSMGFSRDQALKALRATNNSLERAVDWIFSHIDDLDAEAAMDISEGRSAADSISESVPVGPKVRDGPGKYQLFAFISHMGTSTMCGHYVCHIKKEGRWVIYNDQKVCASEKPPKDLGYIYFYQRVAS
# [25] = test system: MM.1S cells; assay: Viability of scr- or p21-siRNA transfected MM.1S cells; type: cell-based, human; details: 48 hr
# [26] = test system: HDM2, HDMX, p53, p21; assay: Immunoblot of HDM2/HDMX/p53/p21 in MM.1S and RPMI-8226 cells; type: cell-based, human; details: 6.25 and 12.5 μM, 24 hr
# [27] = test system: HCT116 p53 (WT) and HCT116 p53^−/− cells; assay: Viability, HCT116 p53; type: cell-based, human; details: 72 hr
# [28] = test system: other DUBs; assay: HA-UbVME probe labeling of other DUBs, HEK293T cells; type: cell-based; details: even at 40 μM
# [29] = biological target: UCHL1 (Homo sapiens, UniProt P09936); assay: DUB inhibition in cells; type: cell-based; details: Fig S1A
# UCHL1, sequence (P09936 whole entry): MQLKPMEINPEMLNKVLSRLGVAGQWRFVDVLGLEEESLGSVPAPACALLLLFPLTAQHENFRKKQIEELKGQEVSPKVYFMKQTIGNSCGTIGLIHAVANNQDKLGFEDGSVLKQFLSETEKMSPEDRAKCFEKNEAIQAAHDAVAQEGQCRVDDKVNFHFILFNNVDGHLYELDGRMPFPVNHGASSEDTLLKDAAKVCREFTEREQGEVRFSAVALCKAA
# [30] = biological target: T1, USP7; assay: Ubiquitin-linked K48 chain cleavage assay, USP7; type: biochemical; details: Ub7 and K48-linked chains
# [31] = test system: HDM2; assay: HDM2 ubiquitylation; type: cell-based; details: U2OS
# [32] = test system: MM.1S cells cultured with BMSCs; assay: MM.1S proliferation with BMSCs, 3H-TdR uptake; type: cell-based, human; details: 72 hr
# [33] = test system: proteasome; assay: Proteasome activity in MM.1S cells; type: cell-based, human; details: for Chymotrypsin-like (CT-L) proteasome activity: MM.1S cells, 3 hr
# [34] = test system: other DUBs or other families of cysteine proteases; assay: Ub-PLA2 / protease panel, selectivity; type: biochemical; details: read-out: EC50, other DUBs or other families of cysteine proteases; Fig 1D
# [35] = test system: MM.1S MM tumors; assay: Human MM.1S plasmacytoma xenograft
# [36] = test system: MM cells from bortezomib-resistant patients; assay: Viability of MM cells from bortezomib-resistant patients; type: cell-based, human; details: 12.5 nM, 48 hr, in 3 of 6 samples
# [37] = 10 mg/kg IV twice weekly for 3 weeks
# T1 sequence (Q93009 whole entry): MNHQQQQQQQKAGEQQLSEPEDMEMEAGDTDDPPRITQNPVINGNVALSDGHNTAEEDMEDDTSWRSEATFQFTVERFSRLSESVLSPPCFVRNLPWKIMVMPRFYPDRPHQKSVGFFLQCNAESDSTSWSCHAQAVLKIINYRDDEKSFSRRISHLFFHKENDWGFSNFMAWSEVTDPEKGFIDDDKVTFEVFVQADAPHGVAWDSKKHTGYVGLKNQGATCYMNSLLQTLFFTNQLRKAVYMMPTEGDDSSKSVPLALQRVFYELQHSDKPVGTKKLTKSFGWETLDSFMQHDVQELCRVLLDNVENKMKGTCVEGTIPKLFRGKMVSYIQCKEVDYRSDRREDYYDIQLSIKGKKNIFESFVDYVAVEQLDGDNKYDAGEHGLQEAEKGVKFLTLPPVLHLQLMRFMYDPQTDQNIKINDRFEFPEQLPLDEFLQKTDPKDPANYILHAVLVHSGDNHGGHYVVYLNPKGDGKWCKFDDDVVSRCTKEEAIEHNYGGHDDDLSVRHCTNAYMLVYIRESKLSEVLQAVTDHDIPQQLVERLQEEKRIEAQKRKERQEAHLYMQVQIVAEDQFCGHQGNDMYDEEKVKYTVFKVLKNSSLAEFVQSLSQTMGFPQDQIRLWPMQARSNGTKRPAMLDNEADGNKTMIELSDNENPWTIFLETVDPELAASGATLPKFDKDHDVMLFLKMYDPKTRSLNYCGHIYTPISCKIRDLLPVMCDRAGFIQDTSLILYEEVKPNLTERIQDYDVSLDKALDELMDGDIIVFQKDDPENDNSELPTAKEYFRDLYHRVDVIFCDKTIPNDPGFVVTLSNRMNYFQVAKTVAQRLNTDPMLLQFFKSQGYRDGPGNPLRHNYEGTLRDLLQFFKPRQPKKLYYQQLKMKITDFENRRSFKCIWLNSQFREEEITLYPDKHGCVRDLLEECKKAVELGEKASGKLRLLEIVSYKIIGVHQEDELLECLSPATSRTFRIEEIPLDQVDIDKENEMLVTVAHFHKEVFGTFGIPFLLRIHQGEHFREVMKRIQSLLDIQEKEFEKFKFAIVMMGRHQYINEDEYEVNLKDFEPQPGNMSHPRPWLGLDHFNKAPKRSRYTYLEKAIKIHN
smiles,measurement,setting,value
CC(=O)c1cc([N+](=O)[O-])c(Sc2ccccc2)s1 [P22074],Effect on viability of MM cell lines,[1],no significant effect
same,USP7 inhibitory activity (SAR),[2],inactive
same,USP7 inhibitory activity (SAR),[2]; listed as 1,not active
CC(=O)c1cc([N+](=O)[O-])c(Sc2cccc(Cl)c2Cl)s1 [P5091],Cell viability,[3],decreased the viability
same,Percentage of viable cells,"[4]; HDM2-siRNA, P5091 6.25 μM",73.3%
same,Percentage of viable cells,"[4]; HDM2-siRNA, P5091 12.5 μM",19.2%
same,Percentage of viable cells,"[4]; scr-siRNA, P5091 6.25 μM",47.2%
same,Percentage of viable cells,"[4]; scr-siRNA, P5091 12.5 μM",8.6%
same,Cell viability,[5],decreases the viability
same,Inhibition of UCHL3,[6],did not inhibit
same,Effect of p53 depletion by siRNA on drug-induced decrease in viability,[7],does not affect
same,IC50,[8],7.72 µM
same,Cytotoxicity in HCT116 p21^−/− cells,[9],significantly blocked
same,IC50,"[10]; ANBL-6.WT, 48 hr",6.83 µM
same,MTD dose,[11],20 mg/kg
same,Viability of patient MM cells,[12],dose-dependent decrease in the viability
same,IC50,[13],20.9 µM
same,Tumor growth (serum shIL-6R),[14],inhibited tumor growth
same,Concentration inhibiting Ub-USP7 conjugate formation (HA-UbVME labeling),[15],5 to 10 µM
same,Survival,[16],prolongs survival
same,Tumor growth,[16],inhibits leukemic tumor growth
same,IC50,"[17]; ANBL-6.BR, 48 hr",9.85 µM
same,IC50 ratio (ANBL-6.BR/ANBL-6.WT),[17]; p < 0.001,significantly less than bortezomib
same,Inhibition of USP7 activity,[18],> 50%
same,Survival,[19]; [37],prolongs survival
same,Tumor growth,[19]; [37],inhibits MM tumor growth
same,USP7 activity in tumors,"[19]; compared with control mice, at 3 hr",marked inhibition of USP7 activity
same,IC50,[20],15 µM
same,Apoptosis (Annexin V/PI),[21],accumulation of cells in early (Ann V^+/PI^−) and late stage (Ann V^+/PI^+) apoptosis
same,Blood chemistry profile,[22],"normal levels of bilirubin, hemoglobin, and creatinine"
same,Weight loss,[22],no significant weight loss
same,Cytotoxic activity,[23],marked reduction in P5091 cytotoxic activity
same,Inhibition of USP5,[24],did not inhibit
same,Effect of p21 silencing with siRNA on cytotoxicity,[25],attenuates P5091-induced cytotoxicity
same,"HDM2, HDMX, p53 and p21 protein levels",[26],"decreased HDM2 and HDMX, as well as upregulated p53 and p21 levels"
same,Cytotoxicity in HCT116 p53 (WT) versus HCT116 p53^−/−,[27],equipotent cytotoxicity in both cell types
same,Labeling of other DUBs with Ub-VME,[28],No gross difference
same,Inhibition of UCHL1,[29],did not inhibit
same,USP7-mediated cleavage of poly ubiquitin chains,[30],inhibited in a dose-dependent manner
same,HDM2 degradation,"[31]; 15 μM, versus CHX alone",accelerates the degradation of HDM2
same,HDM2 ubiquitination,"[31]; HA-Ub transfected, 30 μM, 4 hr",markedly increases HDM2 ubiquitination
same,BMSCs-induced proliferation of MM.1S,[32],inhibited BMSCs-induced proliferation
same,Caspase-like (C-L) proteasome activity,[33]; 25–50 μM,no effect
same,Trypsin-like (T-L) proteasome activity,[33]; 25–50 μM,no effect
same,Chymotrypsin-like (CT-L) proteasome activity,[33],no significant inhibition
same,EC50,[34],> 100 µM
same,Survival,[35]; [37],prolongs survival
same,Tumor growth,[35]; [37],inhibits MM tumor growth
same,Proliferation in harvested tumors,[35]; BrdU and Ki67 staining,decreases proliferation
same,Apoptotic tumor cells,"[35]; cleaved caspase-3, TUNEL, versus vehicle","increases the number of cleaved-caspase-3-, and TUNEL-positive apoptotic tumor cells"
same,Angiogenesis markers in tumors,"[35]; immunostaining VEGFR2, PECAM1",decreases the number of VEGFR2- and PECAM1-positive cells
same,USP7 activity in harvested tumors,[35]; relative to control mice,inhibited USP7 activity
same,EC50,"[2]; read-out: EC50, deubiquitylating activity against USP7, Ub-PLA2 reporter assay",4.2 ± 0.9 µM
"CC(C)C[C@H](NC(=O)[C@H](Cc1ccccc1)NC(=O)c1cnccn1)B(O)O [bortezomib, reference compound]",IC50,[10]; 48 h,0.00232 µM
same,Decrease in viability,[36],10%–50%
same,IC50,[17]; 48 h,0.0121 µM
same,Chymotrypsin-like (CT-L) proteasome activity,[33],blocks
